Data from patent US8106055B2, “Substituted amide compounds” (Gruenenthal GmbH, priority 2007, dated 2012).
Where two headings read alike, the source gives them in different places.

Columns and labels:
[1] = biological target: T1, bradykinin 1 receptor (B1R) of the rat (Rattus norvegicus, UniProt P97583); experiment: Functional investigation on the rat bradykinin 1 receptor (B1R), Ca2+ FLIPR assay in CHO K1 rB1R cells; format: cell-based
T1 construct: expressed in transfected cells; host or cells: CHO K1 cells
T1 sequence (P97583 1-337): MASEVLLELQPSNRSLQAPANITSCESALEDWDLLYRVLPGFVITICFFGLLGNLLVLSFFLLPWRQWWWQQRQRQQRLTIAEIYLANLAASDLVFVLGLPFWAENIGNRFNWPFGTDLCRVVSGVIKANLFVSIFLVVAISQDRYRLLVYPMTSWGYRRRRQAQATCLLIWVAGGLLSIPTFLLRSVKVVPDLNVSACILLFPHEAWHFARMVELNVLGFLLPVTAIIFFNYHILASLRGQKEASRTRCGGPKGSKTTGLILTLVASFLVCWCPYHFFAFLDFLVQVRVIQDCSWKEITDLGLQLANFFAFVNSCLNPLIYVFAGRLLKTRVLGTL
Outline: (§1)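 Cells were dye-loaded with Fluo-4 plus probenecid, then test substances added and Ca2+ influx compared with agonist control for % activation. After 10-20 min, EC80 agonist (Lys-Des-Arg9-bradykinin human; Des-Arg9-bradykinin rat) was applied; suppression gave % inhibition and IC50 values.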

[2] = biological target: T2, human bradykinin 1 receptor (B1R) (Homo sapiens, UniProt P46663); experiment: Functional investigation on the human bradykinin 1 receptor (B1R), Ca2+ FLIPR assay in CHO K1 hB1R cells; format: cell-based
T2 construct: expressed in transfected cells; host or cells: CHO K1 cells
T2 sequence (P46663 1-353): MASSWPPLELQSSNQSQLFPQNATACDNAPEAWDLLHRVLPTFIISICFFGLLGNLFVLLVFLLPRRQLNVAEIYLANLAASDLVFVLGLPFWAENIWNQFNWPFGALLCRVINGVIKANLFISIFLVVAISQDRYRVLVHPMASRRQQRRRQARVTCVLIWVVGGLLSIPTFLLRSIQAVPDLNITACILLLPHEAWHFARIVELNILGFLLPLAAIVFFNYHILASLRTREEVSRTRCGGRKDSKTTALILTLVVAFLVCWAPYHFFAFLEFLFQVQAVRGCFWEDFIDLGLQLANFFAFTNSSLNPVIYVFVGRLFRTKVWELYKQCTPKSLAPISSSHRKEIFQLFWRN
Outline: as §1

human μ opiate receptor = biological target: T3, human μ opiate receptor (Homo sapiens, UniProt P35372); experiment: Affinity for the human μ opiate receptor ([3H]-naloxone displacement, CHO-K1 receptor membrane preparation, SPA); format: binding; conditions: 1.5 h, test concentration 1 μM
T3 construct: purchased PerkinElmer Life Sciences, Zaventem, Belgium RB-HOM; host or cells: CHO-K1 cells (membrane preparation)
Protocol: Binding data of the compounds on the μ opioid receptor and data on the inhibition of reuptake of serotonin (5-HT) are given in Table 1. The data for the μ receptor were measured at a test concentration of 1 μM, and those for the serotonin reuptake at 10 μM. The values are stated in % inhibition.
Investigation of the Activity of the Compounds of the Invention Method for Determining the Affinity for the Human μ Opiate Receptor
The receptor affinity for the human p opiate receptor is determined in a homogeneous set-up in microtitre plates. For this, dilution series of the substances to be tested are incubated with a receptor membrane preparation (15-40 μg of protein/250 μl of incubation batch) of CHO-K1 cells which express the human p opiate receptor (RB-HOM receptor membrane preparation from PerkinElmer Life Sciences, Zaventem, Belgium) in the presence of 1 nmol/l of the radioactive ligand [^3H]-naloxone (NET719, PerkinElmer Life Sciences, Zaventem, Belgium) and 1 mg of WGA-SPA-Beads (wheat germ agglutinin SPA beads from Amersham/Pharmacia, Freiburg, Germany) in a total volume of 250 μl for 90 minutes at room temperature. 50 mmol/l of Tris-HCl supplemented with 0.06% of bovine serum albumin is used as the incubation buffer. 100 μmol/l of naloxone are additionally added for determination of the non-specific binding. After the end of the ninety-minute incubation time, the microtitre plates are centrifuged for 20 minutes at 1,000 g and the radioactivity is measured in a β-counter (Microbeta-Trilux, PerkinElmer Wallac, Freiburg, Germany). The percentage displacement of the radioactive ligand from its binding to the human p opiate receptor is determined at a concentration of the test substances of 1 μmol/l and stated as the percentage inhibition of the specific binding. Starting from the percentage displacement by various concentrations of the test substances, IC50 inhibitory concentrations which cause a 50 percent displacement of the radioactive ligand are calculated. By conversion by means of the Cheng-Prusoff relationship, Ki values for the test substances are obtained.

[3] = CHO-K1, B1R antagonism rat, test substance 10 μM, Ca2+ FLIPR, CHO K1 rB1R cells, read-out: B1R Ant. r [10 μM] % Inhibition
[4] = CHO-K1, B1R antagonism human, test substance 10 μM, Ca2+ FLIPR, CHO K1 hB1R cells, read-out: B1R Ant. h [10 μM] % Inhibition
[5] = Table 3, to be read in the same way as Table 1, read-out: μ

T3 sequence (P35372 whole entry): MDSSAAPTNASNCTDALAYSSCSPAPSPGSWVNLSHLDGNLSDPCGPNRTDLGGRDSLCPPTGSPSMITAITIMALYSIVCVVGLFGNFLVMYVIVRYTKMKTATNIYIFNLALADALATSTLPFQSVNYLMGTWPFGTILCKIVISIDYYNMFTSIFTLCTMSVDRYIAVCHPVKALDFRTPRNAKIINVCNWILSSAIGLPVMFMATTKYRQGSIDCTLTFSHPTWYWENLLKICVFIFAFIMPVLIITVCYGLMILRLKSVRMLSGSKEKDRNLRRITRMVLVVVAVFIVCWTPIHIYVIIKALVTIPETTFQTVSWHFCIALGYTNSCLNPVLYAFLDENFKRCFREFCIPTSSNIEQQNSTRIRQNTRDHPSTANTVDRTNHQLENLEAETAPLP

Row | Structure (SMILES) | inhibition at 10 µM [1, 3] | inhibition at 10 µM [2, 4] | other results
1 | COc1cc(C)c(S(=O)(=O)N2CCCC(COCC(=O)NCC3CCC(C(c4ccccc4)N4CCCC4)CC3)C2)c(C)c1 (stereo not drawn) [Example 655, 2-((1-(4-methoxy-2,6-dimethylphenylsulfonyl)piperidin-3-yl)methoxy)-N-((4-(phenyl(pyrrolidin-1-yl)methyl)cyclohexyl)methyl)acetamide] | 74% | 71% | inhibition at 1 µM (human μ opiate receptor; [5]): 38%
2 | COc1cc(C)c(S(=O)(=O)N(C)CCOCC(=O)NC2CCC(C(c3ccccc3)N(C)C)CC2)c(C)c1C (stereo not drawn) [Example 597, N-[4-(dimethylaminophenylmethyl)-cyclohexyl]-2-{2-[(4-methoxy-2,3,6-trimethylbenzenesulfonyl)-methylamino]-ethoxy}-acetamide] | – | – | B1R Ant. r [10 μM] % Inhibition ([1]; B1R antagonism rat, test substance 10 μM, Ca2+ FLIPR, CHO K1 rB1R cells): −22%; B1R Ant. h [10 μM] % Inhibition ([2]; B1R antagonism human, test substance 10 μM, Ca2+ FLIPR, CHO K1 hB1R cells): 72%; inhibition at 1 µM (human μ opiate receptor; Table 2, read-out: μ receptor): 87%
3 | O=C(COCC1CCCCN1S(=O)(=O)c1c(Cl)cc(Cl)cc1Cl)NCC1CCC(C(c2ccccc2)N2CCCC2)CC1 (stereo not drawn) [Example 658, N-((4-(phenyl(pyrrolidin-1-yl)methyl)cyclohexyl)methyl)-2-((1-(2,4,6-trichlorophenylsulfonyl)piperidin-2-yl)methoxy)acetamide] | 105% | 104% | inhibition at 1 µM (human μ opiate receptor; [5]): 88%
4 | COc1cc(C)c(S(=O)(=O)N2CCCC(OCC(=O)NC3CCC(C(c4ccccc4)N4CCN(C)CC4)CC3)C2)c(C)c1 (stereo not drawn) [Example 708, 2-(1-(4-methoxy-2,6-dimethylphenylsulfonyl)piperidin-3-yloxy)-N-(4-((4-methylpiperazin-1-yl)(phenyl)methyl)cyclohexyl)acetamide] | 91% | 100% | inhibition at 1 µM (human μ opiate receptor; [5]): 29%
5 | O=C(COCC1CCCN1S(=O)(=O)c1c(Cl)cc(Cl)cc1Cl)NC1CCC(C(c2ccccc2)N2CCCC2)CC1 (stereo not drawn) [Example 650, N-(4-(phenyl(pyrrolidin-1-yl)methyl)cyclohexyl)-2-((1-(2,4,6-trichlorophenylsulfonyl)pyrrolidin-2-yl)methoxy)acetamide] | 99% | 96% | inhibition at 1 µM (human μ opiate receptor; [5]): 92%
6 | COc1ccc(-c2noc(C(=O)NCC(=O)NC3CCC(C(c4ccccc4)N(C)C)CC3)n2)cc1OC (stereo not drawn) [Example 775, 3-(3,4-dimethoxy-phenyl)-[1,2,4]oxadiazole-5-carboxylic acid {[4-(dimethylamino-phenyl-methyl)-cyclohexylcarbamoyl]-methyl}-amide] | 20% | -7% | –
7 | CN(C)C(CCc1ccccc1)C1CCC(NC(=O)CNC(=O)c2nc(-c3cccs3)no2)CC1 (stereo not drawn) [Example 784, 3-thiophen-2-yl-[1,2,4]oxadiazole-5-carboxylic acid {[4-(1-dimethylamino-3-phenyl-propyl)-cyclohexylcarbamoyl]-methyl}-amide] | -1% | 76% | –
8 | COc1ccc(-c2noc(C(=O)NCCC(=O)NC3CCC(C(c4ccccc4)N(C)C)CC3)n2)cc1OC (stereo not drawn) [Example 774, 3-(3,4-dimethoxy-phenyl)-[1,2,4]oxadiazole-5-carboxylic acid {2-[4-(dimethylamino-phenyl-methyl)-cyclohexylcarbamoyl]-ethyl}-amide] | 2% | -8% | –
9 | CN(C)C(CCc1ccccc1)C1CCC(NC(=O)CNC(=O)c2nc(-c3cc(Cl)cc(Cl)c3)no2)CC1 (stereo not drawn) [Example 790, 3-(3,5-dichloro-phenyl)-[1,2,4]oxadiazole-5-carboxylic acid {[4-(1-dimethylamino-3-phenyl-propyl)-cyclohexylcarbamoyl]-methyl}-amide] | 11% | 35% | –
10 | CN(C)C(c1cccs1)C1CCC(NC(=O)CNC(=O)c2nc(-c3ccc(C(C)(C)C)cc3)no2)CC1 (stereo not drawn) [Example 779, 3-(4-tert-butyl-phenyl)-[1,2,4]oxadiazole-5-carboxylic acid {[4-(dimethylamino-thiophen-2-yl-methyl)-cyclohexylcarbamoyl]-methyl}-amide] | -13% | -10% | –
11 | CN(C)C(CCc1ccccc1)C1CCC(NC(=O)CNC(=O)c2nc(-c3ccc4c(c3)OCO4)no2)CC1 (stereo not drawn) [Example 783, 3-benzo[1,3]dioxol-5-yl-[1,2,4]oxadiazole-5-carboxylic acid {[4-(1-dimethylamino-3-phenyl-propyl)-cyclohexylcarbamoyl]-methyl}-amide] | -28% | 45% | –
12 | CN(C)C(c1ccccc1)C1CCC(NC(=O)CCNC(=O)c2nc(-c3ccccn3)no2)CC1 (stereo not drawn) [Example 771, 3-pyridin-2-yl-[1,2,4]oxadiazole-5-carboxylic acid {2-[4-(dimethylamino-phenyl-methyl)-cyclohexylcarbamoyl]-ethyl}-amide] | 8% | -16% | –
13 | COc1ccccc1-c1noc(C(=O)NCC(=O)NC2CCC(C(CCc3ccccc3)N(C)C)CC2)n1 (stereo not drawn) [Example 782, 3-(2-methoxy-phenyl)-[1,2,4]oxadiazole-5-carboxylic acid {[4-(1-dimethylamino-3-phenyl-propyl)-cyclohexylcarbamoyl]-methyl}-amide] | -11% | -6% | –
14 | CN(C)C(c1ccccc1)C1CCC(NC(=O)CNC(=O)c2nc(-c3ccc(C(F)(F)F)cc3)no2)CC1 (stereo not drawn) [Example 765, 3-(4-trifluoromethyl-phenyl)-[1,2,4]oxadiazole-5-carboxylic acid {[4-(dimethylamino-phenyl-methyl)-cyclohexylcarbamoyl]-methyl}-amide] | 29% | 15% | –
15 | Cc1ccc(F)cc1-c1noc(C(=O)NCC(=O)NC2CCC(C(c3ccccc3)N(C)C)CC2)n1 (stereo not drawn) [Example 767, 3-(5-fluoro-2-methyl-phenyl)-[1,2,4]oxadiazole-5-carboxylic acid {[4-(dimethylamino-phenyl-methyl)-cyclohexylcarbamoyl]-methyl}-amide] | 17% | 43% | –
16 | CN(C)C(c1ccccc1)C1CCC(NC(=O)CCNC(=O)c2nc(-c3cc(Cl)cc(Cl)c3)no2)CC1 (stereo not drawn) [Example 761, 3-(3,5-dichloro-phenyl)-[1,2,4]oxadiazole-5-carboxylic acid {2-[4-(dimethylamino-phenyl-methyl)-cyclohexylcarbamoyl]-ethyl}-amide] | – | – | inhibition at 10 µM ([1]; CHO-K1, read-out: B1R Ant. r [10 μM] % Inhibition): 15%; inhibition at 10 µM ([2]; CHO-K1, read-out: B1R Ant. h [10 μM] % Inhibition): 34%
17 | CN(C)C(c1cccs1)C1CCC(NC(=O)CNC(=O)c2nc(-c3ccc(C(F)(F)F)cc3)no2)CC1 (stereo not drawn) [Example 777, 3-(4-trifluoromethyl-phenyl)-[1,2,4]oxadiazole-5-carboxylic acid {[4-(dimethylamino-thiophen-2-yl-methyl)-cyclohexylcarbamoyl]-methyl}-amide] | 27% | -1% | –
